Among the data in ChEMBL document CHEMBL4043168, “The design and SAR of a novel series of 2-aminopyridine based LRRK2 inhibitors” (Bioorg Med Chem Lett, 2017) are inhibition values, retold here.

The target in test [1] is Interferon-induced, double-stranded RNA-activated protein kinase (Homo sapiens) (UniProt P19525). The test can be described thus: Inhibition of PKR activation Loop (IGDFGLVTSLKNDGKR) in human PBMC at 1 uM.
Test [2] deals with 5'-AMP-activated protein kinase catalytic subunit alpha-2 (Homo sapiens) (UniProt P54646). The test can be described thus: Inhibition of AMPKa2 labeling at conserved Lys1 (VAVKILNR) in human PBMC at 0.1 uM.
The target in test [3] is Cyclin-dependent kinase 2 (Homo sapiens) (UniProt P24941). The test can be described thus: Inhibition of CDK2 labeling at conserved Lys2 (DLKPQNLLINTEGAIK) in human PBMC at 1 uM.
Test [4] addresses Tyrosine-protein kinase CSK (Homo sapiens) (UniProt P41240). The test can be described thus: Inhibition of CSK labeling at conserved Lys2 (VSDFGLTKEASSTQDTGKLPVK) in human PBMC at 0.1 uM.
Test [5] concerns the target Mitogen-activated protein kinase kinase kinase kinase 2 (Homo sapiens) (UniProt Q12851). The test can be described thus: Inhibition of GCK conserved Lys2 (DIKGANLLLTLQGDVK) in human PBMC at 0.1 uM.
Test [6] addresses Tyrosine-protein kinase Yes (Homo sapiens) (UniProt P07947). The test is described as follows: Inhibition of YES activation Loop (QGAKFPIKWTAPEAALYGR) in human PBMC at 0.1 uM.
For test [7], the target named is Ribosomal protein S6 kinase alpha-4 (Homo sapiens) (UniProt O75676). The test can be described thus: Inhibition of MSK2 domain1 conserved Lys2 (DIKLENILLDSNGHVVLTDFGLSK) in human PBMC at 1 uM.
Test [8] concerns the target T1, Serine/threonine-protein kinase 3 (Homo sapiens) (UniProt Q13188).
T1 sequence (whole entry): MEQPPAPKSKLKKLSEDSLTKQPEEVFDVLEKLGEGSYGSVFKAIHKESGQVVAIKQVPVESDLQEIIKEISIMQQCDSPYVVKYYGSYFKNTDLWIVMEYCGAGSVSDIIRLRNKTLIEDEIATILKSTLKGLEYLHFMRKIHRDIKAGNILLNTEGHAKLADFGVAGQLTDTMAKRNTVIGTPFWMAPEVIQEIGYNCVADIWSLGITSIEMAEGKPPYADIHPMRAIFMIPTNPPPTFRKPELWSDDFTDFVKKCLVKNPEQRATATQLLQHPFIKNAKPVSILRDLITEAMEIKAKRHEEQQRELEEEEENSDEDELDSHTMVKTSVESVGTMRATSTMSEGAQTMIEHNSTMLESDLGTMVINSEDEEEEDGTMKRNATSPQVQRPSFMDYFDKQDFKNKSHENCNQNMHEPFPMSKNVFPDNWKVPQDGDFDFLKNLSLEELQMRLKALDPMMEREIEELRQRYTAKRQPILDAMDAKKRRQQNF
The test can be described thus: Inhibition of MST2 conserved Lys1 (ESGQVVAIKQVPVESDLQEIIK) in human PBMC at 1 uM.

In test [9] the target is Serine/threonine-protein kinase Sgk3 (Homo sapiens) (UniProt Q96BR1). The test is described as follows: Inhibition of SGK3 conserved Lys1 (FYAVKVLQK) in human PBMC at 1 uM.
For test [10], the target named is Serine/threonine-protein kinase 25 (Homo sapiens) (UniProt O00506). The test is described as follows: Inhibition of YSK1 conserved Lys2 (DIKAANVLLSEQGDVK) in human PBMC at 1 uM.
For test [11], the target named is Cyclin-dependent kinase 17 (Homo sapiens) (UniProt Q00537). The test is described as follows: Inhibition of PCTAIRE2 conserved Lys2 (DLKPQNLLINEK) in human PBMC at 1 uM.
In test [12] the target is T2, STE20-related kinase adapter protein alpha (Homo sapiens) (UniProt Q7RTN6).
T2 sequence (whole entry): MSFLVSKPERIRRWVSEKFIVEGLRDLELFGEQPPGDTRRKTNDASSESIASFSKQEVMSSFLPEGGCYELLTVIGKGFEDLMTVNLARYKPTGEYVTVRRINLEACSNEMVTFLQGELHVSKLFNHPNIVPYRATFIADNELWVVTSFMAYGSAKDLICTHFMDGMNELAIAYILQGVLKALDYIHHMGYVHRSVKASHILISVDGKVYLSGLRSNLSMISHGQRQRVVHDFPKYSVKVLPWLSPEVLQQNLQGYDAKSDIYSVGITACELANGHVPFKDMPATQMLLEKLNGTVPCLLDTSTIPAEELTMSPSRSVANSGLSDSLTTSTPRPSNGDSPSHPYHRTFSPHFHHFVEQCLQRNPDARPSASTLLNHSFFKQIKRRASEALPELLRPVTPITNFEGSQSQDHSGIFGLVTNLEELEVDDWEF
The test can be described thus: Inhibition of STLK5 conserved Lys2 (SVKASHILISVDGK) in human PBMC at 0.1 uM.

For test [13], the target named is Serine/threonine-protein kinase Chk2 (Homo sapiens) (UniProt O96017). The test is described as follows: Inhibition of CHK2 labeling at conserved Lys2 (DLKPENVLLSSQEEDCLIK) in human PBMC at 0.1 uM.
The target of test [14] is Receptor-interacting serine/threonine-protein kinase 3 (Homo sapiens) (UniProt Q9Y572). The test can be described thus: Inhibition of RIPK3 conserved Lys2 (DLKPSNVLLDPELHVK) in human PBMC at 1 uM.
For test [15], the target named is Ribosomal protein S6 kinase alpha-3 (Homo sapiens) (UniProt P51812). The test is described as follows: Inhibition of RSK2 domain1 activation Loop (LTDFGLSKESIDHEKK) in human PBMC at 0.1 uM.
For test [16], the target named is T3, Serine/threonine-protein kinase 4 (Homo sapiens) (UniProt Q13043).
T3 sequence (whole entry): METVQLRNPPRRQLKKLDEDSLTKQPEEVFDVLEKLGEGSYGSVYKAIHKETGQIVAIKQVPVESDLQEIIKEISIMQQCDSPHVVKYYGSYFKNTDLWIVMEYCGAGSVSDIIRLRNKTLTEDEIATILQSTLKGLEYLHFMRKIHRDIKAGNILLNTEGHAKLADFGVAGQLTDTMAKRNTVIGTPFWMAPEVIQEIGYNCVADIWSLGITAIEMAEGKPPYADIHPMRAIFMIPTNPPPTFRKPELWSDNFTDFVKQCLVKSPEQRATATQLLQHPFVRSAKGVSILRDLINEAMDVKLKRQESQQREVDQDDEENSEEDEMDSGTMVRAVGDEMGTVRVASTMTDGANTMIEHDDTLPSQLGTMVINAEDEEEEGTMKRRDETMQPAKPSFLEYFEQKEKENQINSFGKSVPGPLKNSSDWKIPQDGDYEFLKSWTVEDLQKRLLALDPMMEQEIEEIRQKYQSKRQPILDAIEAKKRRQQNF
The test can be described thus: Inhibition of MST1 conserved Lys2 (DIKAGNILLNTEGHAK) in human PBMC at 0.1 uM.

Test [17] deals with Serine/threonine-protein kinase WNK1 (Homo sapiens) (UniProt Q9H4A3). The test can be described thus: Inhibition of Wnk1 conserved Lys2 (DLKCDNIFITGPTGSVK) in human PBMC at 1 uM.

Interferon-induced, double-stranded RNA-activated protein kinase (Homo sapiens), sequence (P19525 whole entry): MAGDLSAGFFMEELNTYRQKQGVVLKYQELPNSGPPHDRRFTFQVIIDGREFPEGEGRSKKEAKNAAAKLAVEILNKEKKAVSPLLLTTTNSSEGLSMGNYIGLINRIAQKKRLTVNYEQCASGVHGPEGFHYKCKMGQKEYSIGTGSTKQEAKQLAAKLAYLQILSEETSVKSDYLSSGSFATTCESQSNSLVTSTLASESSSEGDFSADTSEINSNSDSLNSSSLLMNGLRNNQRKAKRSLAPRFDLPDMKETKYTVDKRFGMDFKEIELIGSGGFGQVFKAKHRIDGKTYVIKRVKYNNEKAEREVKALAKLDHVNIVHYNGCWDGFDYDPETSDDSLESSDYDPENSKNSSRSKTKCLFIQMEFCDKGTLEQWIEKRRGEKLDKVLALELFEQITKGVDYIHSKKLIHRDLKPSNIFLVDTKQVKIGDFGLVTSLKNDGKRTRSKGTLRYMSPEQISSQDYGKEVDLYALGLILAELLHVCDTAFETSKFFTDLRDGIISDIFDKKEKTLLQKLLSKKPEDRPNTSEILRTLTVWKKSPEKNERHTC
Serine/threonine-protein kinase Chk2 (Homo sapiens), sequence (O96017 whole entry): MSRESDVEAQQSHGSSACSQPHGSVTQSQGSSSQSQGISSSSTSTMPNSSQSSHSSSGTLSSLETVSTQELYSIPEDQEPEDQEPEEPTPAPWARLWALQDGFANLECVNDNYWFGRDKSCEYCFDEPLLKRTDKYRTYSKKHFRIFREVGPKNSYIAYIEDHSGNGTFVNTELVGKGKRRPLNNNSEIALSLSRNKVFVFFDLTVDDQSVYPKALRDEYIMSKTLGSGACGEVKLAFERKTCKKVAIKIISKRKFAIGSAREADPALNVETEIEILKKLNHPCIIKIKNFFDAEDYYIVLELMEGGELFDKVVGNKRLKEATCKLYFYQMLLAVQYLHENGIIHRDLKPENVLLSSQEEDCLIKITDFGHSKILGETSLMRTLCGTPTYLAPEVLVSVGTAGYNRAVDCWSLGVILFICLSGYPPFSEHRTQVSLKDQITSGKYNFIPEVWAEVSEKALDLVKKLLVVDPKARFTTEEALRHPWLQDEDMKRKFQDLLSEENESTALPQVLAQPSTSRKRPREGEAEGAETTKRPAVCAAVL
Tyrosine-protein kinase CSK (Homo sapiens), sequence (P41240 2-450 limits assumed): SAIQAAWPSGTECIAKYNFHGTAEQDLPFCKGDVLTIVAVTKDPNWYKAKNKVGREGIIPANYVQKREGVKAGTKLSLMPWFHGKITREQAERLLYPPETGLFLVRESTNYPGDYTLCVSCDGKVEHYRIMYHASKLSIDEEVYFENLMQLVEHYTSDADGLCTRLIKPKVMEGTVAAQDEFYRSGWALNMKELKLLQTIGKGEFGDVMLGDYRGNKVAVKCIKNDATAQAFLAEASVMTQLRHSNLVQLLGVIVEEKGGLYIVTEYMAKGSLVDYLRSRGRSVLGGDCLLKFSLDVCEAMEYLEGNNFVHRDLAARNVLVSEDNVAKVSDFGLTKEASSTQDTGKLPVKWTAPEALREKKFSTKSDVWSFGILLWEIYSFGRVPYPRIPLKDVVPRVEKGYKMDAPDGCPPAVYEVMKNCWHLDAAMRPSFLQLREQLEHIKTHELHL
Ribosomal protein S6 kinase alpha-4 (Homo sapiens), sequence (O75676 whole entry, looked up, the tested form may be a part): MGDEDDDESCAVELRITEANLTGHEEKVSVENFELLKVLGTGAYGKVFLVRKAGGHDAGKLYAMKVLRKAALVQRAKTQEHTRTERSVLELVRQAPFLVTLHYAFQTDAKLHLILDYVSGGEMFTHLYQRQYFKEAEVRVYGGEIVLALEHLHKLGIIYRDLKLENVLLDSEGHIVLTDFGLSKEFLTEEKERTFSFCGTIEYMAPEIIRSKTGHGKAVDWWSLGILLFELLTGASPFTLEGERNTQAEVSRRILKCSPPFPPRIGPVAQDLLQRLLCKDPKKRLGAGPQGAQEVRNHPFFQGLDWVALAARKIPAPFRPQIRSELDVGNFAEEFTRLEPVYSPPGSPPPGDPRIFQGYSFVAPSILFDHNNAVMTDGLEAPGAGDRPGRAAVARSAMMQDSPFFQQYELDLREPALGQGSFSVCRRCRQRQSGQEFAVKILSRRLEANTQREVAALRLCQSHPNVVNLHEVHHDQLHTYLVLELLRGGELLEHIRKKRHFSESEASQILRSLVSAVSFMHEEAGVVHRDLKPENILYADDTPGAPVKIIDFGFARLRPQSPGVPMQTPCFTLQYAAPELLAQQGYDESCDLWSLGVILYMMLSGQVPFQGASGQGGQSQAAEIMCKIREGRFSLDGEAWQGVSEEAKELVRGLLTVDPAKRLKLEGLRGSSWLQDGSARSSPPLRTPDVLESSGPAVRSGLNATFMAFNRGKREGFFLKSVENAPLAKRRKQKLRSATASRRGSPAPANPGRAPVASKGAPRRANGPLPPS
5'-AMP-activated protein kinase catalytic subunit alpha-2 (Homo sapiens), sequence (P54646 whole entry, looked up): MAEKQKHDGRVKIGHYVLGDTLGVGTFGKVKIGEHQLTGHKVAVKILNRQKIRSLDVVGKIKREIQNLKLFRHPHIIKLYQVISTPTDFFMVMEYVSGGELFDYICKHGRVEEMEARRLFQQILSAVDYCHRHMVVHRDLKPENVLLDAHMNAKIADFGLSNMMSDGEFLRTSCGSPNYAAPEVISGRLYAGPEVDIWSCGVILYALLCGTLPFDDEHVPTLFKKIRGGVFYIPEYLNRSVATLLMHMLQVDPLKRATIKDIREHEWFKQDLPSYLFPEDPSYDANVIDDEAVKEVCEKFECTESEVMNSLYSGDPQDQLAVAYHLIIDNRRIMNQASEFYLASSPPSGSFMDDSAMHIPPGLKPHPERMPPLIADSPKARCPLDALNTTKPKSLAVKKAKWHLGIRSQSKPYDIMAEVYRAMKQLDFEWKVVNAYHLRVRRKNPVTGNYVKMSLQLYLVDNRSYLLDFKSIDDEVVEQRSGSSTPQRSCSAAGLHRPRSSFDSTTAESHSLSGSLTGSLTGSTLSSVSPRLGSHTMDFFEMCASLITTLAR
Tyrosine-protein kinase Yes (Homo sapiens), sequence (P07947 2-543 limits assumed): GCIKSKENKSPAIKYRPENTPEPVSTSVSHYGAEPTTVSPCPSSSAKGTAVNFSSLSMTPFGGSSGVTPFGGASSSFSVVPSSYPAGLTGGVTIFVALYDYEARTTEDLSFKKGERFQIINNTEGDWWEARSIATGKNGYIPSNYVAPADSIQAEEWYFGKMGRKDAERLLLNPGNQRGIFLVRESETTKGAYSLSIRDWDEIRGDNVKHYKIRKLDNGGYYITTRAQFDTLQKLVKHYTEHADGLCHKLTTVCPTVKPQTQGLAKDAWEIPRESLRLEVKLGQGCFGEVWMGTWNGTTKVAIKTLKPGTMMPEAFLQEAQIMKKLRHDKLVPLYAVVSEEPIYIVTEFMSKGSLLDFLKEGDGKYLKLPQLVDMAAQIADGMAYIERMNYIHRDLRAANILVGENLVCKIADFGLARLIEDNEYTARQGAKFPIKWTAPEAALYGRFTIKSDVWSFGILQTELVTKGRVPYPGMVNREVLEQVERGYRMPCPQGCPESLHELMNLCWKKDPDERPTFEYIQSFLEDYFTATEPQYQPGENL
Cyclin-dependent kinase 17 (Homo sapiens), sequence (Q00537 whole entry, looked up): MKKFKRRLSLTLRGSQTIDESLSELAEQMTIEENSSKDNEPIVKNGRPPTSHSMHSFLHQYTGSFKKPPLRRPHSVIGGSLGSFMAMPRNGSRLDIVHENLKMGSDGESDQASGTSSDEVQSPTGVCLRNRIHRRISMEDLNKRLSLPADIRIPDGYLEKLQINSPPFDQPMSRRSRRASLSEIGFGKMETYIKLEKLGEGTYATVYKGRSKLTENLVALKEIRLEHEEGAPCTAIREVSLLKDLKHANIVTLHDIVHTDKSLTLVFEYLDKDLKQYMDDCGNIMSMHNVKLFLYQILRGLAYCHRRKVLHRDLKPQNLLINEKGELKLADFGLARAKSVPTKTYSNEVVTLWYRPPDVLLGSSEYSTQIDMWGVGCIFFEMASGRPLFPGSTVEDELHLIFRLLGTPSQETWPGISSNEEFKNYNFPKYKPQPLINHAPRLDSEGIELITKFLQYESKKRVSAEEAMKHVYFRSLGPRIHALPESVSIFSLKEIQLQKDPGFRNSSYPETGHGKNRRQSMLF
Mitogen-activated protein kinase kinase kinase kinase 2 (Homo sapiens), sequence (Q12851 whole entry, looked up): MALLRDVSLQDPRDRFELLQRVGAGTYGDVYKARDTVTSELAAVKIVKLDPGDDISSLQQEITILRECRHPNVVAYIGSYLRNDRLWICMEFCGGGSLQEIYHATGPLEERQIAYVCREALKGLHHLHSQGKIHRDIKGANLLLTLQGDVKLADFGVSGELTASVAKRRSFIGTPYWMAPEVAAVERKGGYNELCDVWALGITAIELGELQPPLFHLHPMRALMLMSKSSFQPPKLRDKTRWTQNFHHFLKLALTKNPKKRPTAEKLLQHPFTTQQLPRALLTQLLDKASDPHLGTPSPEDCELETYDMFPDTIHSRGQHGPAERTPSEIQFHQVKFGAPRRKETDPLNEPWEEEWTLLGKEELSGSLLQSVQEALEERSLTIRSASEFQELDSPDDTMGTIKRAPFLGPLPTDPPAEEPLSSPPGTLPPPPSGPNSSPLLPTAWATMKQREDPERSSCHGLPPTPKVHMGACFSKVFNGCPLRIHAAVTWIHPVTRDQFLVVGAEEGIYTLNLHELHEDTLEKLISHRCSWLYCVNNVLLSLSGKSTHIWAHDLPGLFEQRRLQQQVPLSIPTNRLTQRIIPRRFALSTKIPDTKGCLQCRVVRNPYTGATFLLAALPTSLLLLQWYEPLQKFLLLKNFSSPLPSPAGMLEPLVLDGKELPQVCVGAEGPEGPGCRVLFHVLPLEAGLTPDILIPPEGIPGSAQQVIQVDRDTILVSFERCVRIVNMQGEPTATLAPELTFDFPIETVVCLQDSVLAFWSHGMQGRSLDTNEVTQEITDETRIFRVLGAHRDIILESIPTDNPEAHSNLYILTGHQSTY

One may read the inhibition as the change of the read-out against control, counted positive when it falls. Take `CC(C)n1cc(-c2cc(-c3ccc(CN4CCOCC4)cc3)cnc2N)nn1`: the inhibition in test [1] is -3.7%; in test [2] it was 7.7%; in [3], 16.8%; in test [4], -9.6%; in test [5], 10.9%; in [6] it was -4.4%. Moreover, the inhibition in [7] is 10.3%; in [8], -6%; in test [9] it was -2.2%; in test [10] it was 9.9%; in [11], 7.7%; in [12], 26.2%. The inhibition in [13] is -4.8%; in [14], -7.3%; in test [15], 7.7%; in test [16] it was 1.3%; in test [17] it was 2.2%.
